Data taken from patent US20240366779A1, “SELECTIVE DRUG RELEASE FROM INTERNALIZED CONJUGATES OF BIOLOGICALLY ACTIVE COMPOUNDS” (priority 2021, published 2024).
Numbered stars: 1 amine (or outer) side, 2 acyl side, 3 side chain; on linkers, the order of the positions; unused ones are H or OH. Square brackets hold non-standard residues; d marks the D form. Ends that are not written are not given here. Peptide text beside a SMILES is read from it. * marks the point of attachment. Dolaproine = CO[C@@H]([C@@H]1CCCN1)[C@@H](C)C(=O)O; Propanoyl(3-maleimido) = O=C1C=CC(=O)N1CCC(=O)*; Dil = CC[C@H](C)[C@H](NC)[C@@H](CC(=O)O)OC; Gla = N[C@@H](CC(C(=O)O)C(=O)O)C(=O)O; PABC = O=C(OCc1ccc(N[*:1])cc1)[*:2]; X1 = C[C@@H](N*)[C@@H](O)c1ccccc1; Met(O) = CS(=O)CC[C@H](N)C(=O)O; Cit = NC(=O)NCCC[C@H](N)C(=O)O; NMeV = CN[C@H](C(=O)O)C(C)C; Aib = CC(C)(N)C(=O)O

What was measured:
HPAFII cells = test: In vitro cytotoxicity of Ag1 ADCs (CellTiter-Glo, 96 h); format: cell-based; details: Tables 3a and 3b, in words
Description: In vitro cytotoxicity. The cytotoxicity of a tripeptide-based Antibody Drug Conjugate was measured by a cell proliferation assay employing the protocol described in Promega Corp. Technical Bulletin TB288; and Mendoza et al., 2002, Cancer Res. 62:5485-5488), the methods of which are specifically incorporated by reference herein. Briefly, an aliquot of 40 μl of cell culture containing about 400 cells in medium is deposited in each well of a 384-well, opaque-walled plate. A 10 μL aliquot of free drug or Ligand-Drug Conjugate is added to the experimental wells and incubated for 96 h and are then equilibrated to room temperature for approximately 30 minutes whereupon a volume of CellTiter-Glo™ reagent equal to the volume of cell culture medium present in each well is added. The contents are mixed for 2 minutes on an orbital shaker to induce cell lysis and the plate is incubated at room temperature for 10 minutes to stabilize the luminescence signal for recordation.
The italicized values in Tables 3, 3a, and 3b indicate the percentage of cells remaining after 96 hr incubation at the maximum concentration of drug added. For convenience the numbering for the library members of Tables 2 and 2A are retained for the corresponding Drug linker compounds that are incorporated into the ADC of Tables 3, 3a, and 3b.

[1] = tested on: CD30-expressing ALCL and HL cell lines (DEL, Karpas, KMH2, L428, L540cy); test: In vitro cytotoxicity study of cAC10 ADCs (CellTiter-Glo, 96 hours); format: cell-based; details: FIG. 39A-E
Description: ALCL and HL cell lines (DEL, DELBVR8F9, Karpas, KMH2, L428, AND L540cy) were plated in 150 uL complete growth media in 96-well, clear-bottomed, black-walled tissue culture treated plates (Corning). Cell plates were placed at 37° C. and 5% CO2 overnight to allow cells to equilibrate. The ADCs were thawed, and 4×8-point serial dilutions were prepared in RPMI-1640+10% fetal bovine serum (FBS). Fifty uL of each dilution were then added to each cell plate in triplicate. Treated cells were incubated at 37° C. and 5% CO2 for 96 hours. Cell viability was assayed using CellTiter-Glo® Reagent (PROMEGA). Raw data were analyzed in Graphpad Prism (San Diego, CA) using a nonlinear, 4-parameter curve fit model [Y=Bottom+(Top−Bottom)/(1+10^((Log EC50−X)*HillSlope))].

neutrophil elastase = molecular target: T1, neutrophil elastase (Homo sapiens, UniProt P08246); test: Neutrophil elastase assay of 8-load ADCs (QToF MS); format: biochemical; details: 8-load ADC, 37 C, 3 h; FIG. 6A
T1 sequence (P08246 30-267): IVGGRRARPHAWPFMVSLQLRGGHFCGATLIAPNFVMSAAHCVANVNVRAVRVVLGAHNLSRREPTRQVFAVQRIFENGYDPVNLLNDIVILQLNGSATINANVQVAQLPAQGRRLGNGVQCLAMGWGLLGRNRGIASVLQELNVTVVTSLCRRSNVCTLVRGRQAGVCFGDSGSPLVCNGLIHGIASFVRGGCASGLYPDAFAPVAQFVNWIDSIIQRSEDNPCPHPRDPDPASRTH
Description: To a mixture of 8-load ADC (5 ug), buffer (100 mM tris, 75 mM NaCl, pH 7.5; final concentration), and neutrophil elastase (100 ng) was added water to 20 uL. The reaction was incubated at 37 C for 3 h and then immediately analyzed by a QToF mass spectrometer.

[2] = tested on: neutrophils and reticulocytes (bone marrow); test: In vivo bone marrow toxicity of non-binding h00 conjugates (neutrophil and reticulocyte counts, tolerability); details: rat, in words
Excerpt: Toxicity Determinations. Each tripeptide-based Drug Linker compound was reacted with a reduced non-binding antibody to provide a non-binding control ADC and injected i.v. into female Sprague Dawley rats at various concentrations. Animals were euthanized on day 4 or 28 post dose.
Having shown that ADC efficacy has been at least retained on replacing the dipeptide with most of the selected tripeptide sequences, differences in in vivo cytotoxicity against normal bone marrow tissue was explored by replacing the antibody targeting the Ag1 antigen with a non-binding control (h00) antibody. Each of the resulting non-targeting conjugates were then administered at 10 mg/Kg to rats, whose blood were analyzed at day 5 post-administration for neutrophil and reticulocyte counts as a proxy for bone marrow toxicity compared to sham treated animals. […]
A subset of non-targeting conjugates were administered at higher doses to rats to determine the impact on bone marrow depletion. Blood from the doses rats were analyzed at day 8 and day 22 post-administration for neutrophil (FIG. 2C) and reticulocyte (FIG. 3C) counts as a proxy for bone marrow toxicity compared to sham treated animals. […]

[3] = tested on: normal human bone marrow homogenate; test: Fluorescence assay: proteolysis of tripeptide library by normal tissue homogenate; format: biochemical; details: Table 1A, normalized fluorescence at final time point (275-315 min)
Description: (§1) Fluorescence assay. To a 384 well plate was added a mixture of tumor or normal tissue homogenate and citrate buffer (100 mM, pH 4.5; 9 μL) followed by a fluorescently labelled library compound (1 μL; dissolved in 50% MeCN). The reaction was incubated at 37° C. and fluorescence (330 nm excitation, 450 nm emission) was detected several times over a 6-hr. period. The fluorescence fold change was determined by dividing the fluorescence value at each time point with the background fluorescence when no homogenate was added.
Tissue Homogenization. Normal tissue or tumor tissue from mouse xenografts were suspended in buffer (50 mM Tris, 150 mM KCl, pH 7.0) and added to a tube containing Matrix D lysing beads (mpbio). The tissue was homogenized with a Precellys™ 24 homogenizer. The homogenized sample was centrifuged at 1000×g for 10 min and the resulting supernatant was collected then frozen at −80° C. until further use.
The normalized normal tissue fluorescence values are from proteolysis by normal human bone marrow.
That value was then normalized for each peptide in each homogenate by dividing it by the average value for that homogenate. […] The normalized normal tissue values of Table 1 were similarly calculated using homogenized bone marrow.

[4] = tested on: tumor tissue homogenates from HPAF-II, Ramos, SK-Mel-5 and SU-DHL-4 xenograft models; test: Fluorescence assay: proteolysis of tripeptide library by tumor tissue homogenate; format: biochemical, mouse; details: Table 1A; normalized fluorescence averaged across 4 tumor homogenates
Description: as §1
Tissue Homogenization. […]
The normalized fluorescence value for tumor homogenate proteolysis is an averaged value for tumor tissue homogenates derived from four mouse xenograft models.
That value was then normalized for each peptide in each homogenate by dividing it by the average value for that homogenate. […] The normalized tumor tissue values of Table 1 were then determined by averaging the normalized fluorescence value for each peptide across all 4 cancer homogenates that were tested. […] The normalized normal tissue values of Table 1 were similarly calculated using homogenized bone marrow. The Tumor/Normal ratios of Table 1A were determined by dividing the normalized tumor tissue values by the normalized normal tissue values.

Molecule: CC[C@H](C)[C@@H]([C@@H](CC(=O)N1CCC[C@H]1[C@H](OC)[C@@H](C)C(=O)N[C@H](C)[C@@H](O)c1ccccc1)OC)N(C)C(=O)[C@@H](NC(=O)[C@H](C(C)C)N(C)C(=O)OCc1ccc(NC(=O)[C@H](CCCNC(N)=O)NC(=O)[C@H](C)NC(=O)[C@@H](CC(C)C)NC(=O)CCN2C(=O)C=CC2=O)cc1)C(C)C [Compound 8] ({Propanoyl(3-maleimido)}-[dL]A[Cit][PABC][NMeV]V[Dil][Dolaproine]-X1)
- cytotoxicity relative to comparator dipeptide-based ADC (1) (HPAFII cells): less cytotoxic
- efficacy relative to comparator dipeptide-based ADC (1) (HPAFII cells): similarly efficacious

Molecule: CC[C@H](C)[C@@H]([C@@H](CC(=O)N1CCC[C@H]1[C@H](OC)[C@@H](C)C(=O)N[C@H](C)[C@@H](O)c1ccccc1)OC)N(C)C(=O)[C@@H](NC(=O)[C@H](C(C)C)N(C)C(=O)OCc1ccc(NC(=O)[C@H](CCC(=O)O)NC(=O)[C@H](C)NC(=O)[C@@H](C)NC(=O)CCN2C(=O)C=CC2=O)cc1)C(C)C [Compound 22] ({Propanoyl(3-maleimido)}-[dA]AE[PABC][NMeV]V[Dil][Dolaproine]-X1)
- cytotoxicity relative to comparator dipeptide-based ADC (1) (HPAFII cells): less cytotoxic
- efficacy relative to comparator dipeptide-based ADC (1) (HPAFII cells): similarly efficacious

Molecule: CC[C@H](C)[C@@H]([C@@H](CC(=O)N1CCC[C@H]1[C@H](OC)[C@@H](C)C(=O)N[C@H](C)[C@@H](O)c1ccccc1)OC)N(C)C(=O)[C@@H](NC(=O)[C@H](C(C)C)N(C)C(=O)OCc1ccc(NC(=O)[C@H](CC(=O)O)NC(=O)[C@H](C)NC(=O)[C@@H](CC(C)C)NC(=O)CCN2C(=O)C=CC2=O)cc1)C(C)C [Compound 24] ({Propanoyl(3-maleimido)}-[dL]AD[PABC][NMeV]V[Dil][Dolaproine]-X1)
- cytotoxicity relative to comparator dipeptide-based ADC (1) (HPAFII cells): less cytotoxic
- efficacy relative to comparator dipeptide-based ADC (1) (HPAFII cells): similarly efficacious

Molecule: CC[C@H](C)[C@@H]([C@@H](CC(=O)N1CCC[C@H]1[C@H](OC)[C@@H](C)C(=O)N[C@H](C)[C@@H](O)c1ccccc1)OC)N(C)C(=O)[C@@H](NC(=O)[C@H](C(C)C)N(C)C(=O)OCc1ccc(NC(=O)[C@H](CC(C(=O)O)C(=O)O)NC(=O)[C@H](C)NC(=O)[C@@H](CC(C)C)NC(=O)CCN2C(=O)C=CC2=O)cc1)C(C)C [Compound 26] ({Propanoyl(3-maleimido)}-[dL]A[Gla][PABC][NMeV]V[Dil][Dolaproine]-X1)
- cytotoxicity relative to comparator dipeptide-based ADC (1) (HPAFII cells): less cytotoxic
- efficacy relative to comparator dipeptide-based ADC (1) (HPAFII cells): similarly efficacious

Molecule: CC[C@H](C)[C@@H]([C@@H](CC(=O)N1CCC[C@H]1[C@H](OC)[C@@H](C)C(=O)N[C@H](C)[C@@H](O)c1ccccc1)OC)N(C)C(=O)[C@@H](NC(=O)[C@H](C(C)C)N(C)C(=O)OCc1ccc(NC(=O)[C@H](CCC(=O)O)NC(=O)[C@H](CO)NC(=O)[C@H](Cc2ccccc2)NC(=O)CCN2C(=O)C=CC2=O)cc1)C(C)C [Compound 30] ({Propanoyl(3-maleimido)}-FSE[PABC][NMeV]V[Dil][Dolaproine]-X1)
- cytotoxicity relative to comparator dipeptide-based ADC (1) (HPAFII cells): less cytotoxic
- efficacy relative to comparator dipeptide-based ADC (1) (HPAFII cells): similarly efficacious

Molecule: CC[C@H](C)[C@@H]([C@@H](CC(=O)N1CCC[C@H]1[C@H](OC)[C@@H](C)C(=O)N[C@H](C)[C@@H](O)c1ccccc1)OC)N(C)C(=O)[C@@H](NC(=O)[C@@H](NC)C(C)C)C(C)C [SGN-1010, MMAE] (H-[NMeV]V[Dil][Dolaproine]-X1)
- cytotoxic activity (cell viability) [1]: all cell lines are sensitive

Molecule: CC[C@H](C)[C@@H]([C@@H](CC(=O)N1CCC[C@H]1[C@H](OC)[C@@H](C)C(=O)N[C@H](C)[C@@H](O)c1ccccc1)OC)N(C)C(=O)[C@@H](NC(=O)[C@H](C(C)C)N(C)C(=O)OCc1ccc(NC(=O)[C@H](CCC(=O)O)NC(=O)[C@H](C)NC(=O)[C@@H](CC(C)C)NC(=O)CCN2C(=O)C=CC2=O)cc1)C(C)C [compound 5, mp-dLAE-PABC-MMAE] ({Propanoyl(3-maleimido)}-[dL]AE[PABC][NMeV]V[Dil][Dolaproine]-X1)
- percentage of drug cleaved from the heavy chain by neutrophil elastase (neutrophil elastase): lower than that found for non-targeted ADC 37

Molecule: CC[C@H](C)[C@@H]([C@@H](CC(=O)N1CCC[C@H]1[C@H](OC)[C@@H](C)C(=O)N[C@H](C)[C@@H](O)c1ccccc1)OC)N(C)C(=O)[C@@H](NC(=O)[C@H](C(C)C)N(C)C(=O)OCc1ccc(NC(=O)[C@H](CCC(=O)O)NC(=O)C(C)(C)NC(=O)[C@@H](CC(C)C)NC(=O)CCN2C(=O)C=CC2=O)cc1)C(C)C [compound 38] ({Propanoyl(3-maleimido)}-[dL][Aib]E[PABC][NMeV]V[Dil][Dolaproine]-X1)
- cytotoxicity relative to comparator dipeptide-based ADC (1) (HPAFII cells): less cytotoxic
- efficacy relative to comparator dipeptide-based ADC (1) (HPAFII cells): less cytotoxic and efficacious
- toxicity to bone marrow [2]: less toxic to rat bone marrow

Molecule: [dL]-Leu-[Met(O)] [DLeu-Leu-Met(O)]
- Normalized Normal Tissue [3]: 0.66
- Normalized Tumor Tissue [4]: 1.70
